Data on five molecules can be found in ChEMBL document CHEMBL1201862, “PubChem BioAssay data set” (2004).

Each structure is given as a SMILES string. The source made the active and inactive calls. Where only a bound is given, the exact number is not on record here.

In assay [1] the target is T1, E3 ubiquitin-protein ligase XIAP (Homo sapiens, UniProt P98170). Briefly: Counter Screen using XIAP-Bir3 for Chemical Antagonists of Bir1/2 domains of IAP-family anti-apoptotic proteins. [Related pubchem assays (depositor defined):AID1018, AID1449, AID1514, AID1638, AID1749, AID1750, AID488957, AID488963]. On the technique in general: The purpose of a counterscreen is to sort out artefacts and off-target activity.

Assay [2] addresses T1, E3 ubiquitin-protein ligase XIAP. Put plainly: small molecules displacing peptide from XIAP – biochemical, IAP family, fluorescence polarization (AID 1018). The assay is classed as functional. (In general: In fluorescence polarisation assays a small probe gives low polarisation when free and higher when bound to something large.)
Assay [3] in a line: Trypanosoma cruzi growth suppression in host cells – NIH3T3 host cells, beta-gal luminescence, confirmation (AID 2044).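 Also: intracellular parasites grown in NIH/3T3 mouse fibroblasts as host cells; luminescent beta-galactosidase reporter signal from transgenic T. cruzi replicating inside host cells; inhibitors lower the luminescence signal.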 The assay is classed as functional, cell-based.
The nature of assay [4]: NIH3T3 cell viability loss – ATP luminescence, mouse fibroblasts, counter-screen, dose response (AID 2010).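 Also: cells exposed to compound for about 90 hours before reading.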 The assay is classed as functional, cell-based.
Assay [5] addresses T2, Calpain-2 catalytic subunit (Sus scrofa, UniProt P43367).
T2 sequence (P43367 whole entry): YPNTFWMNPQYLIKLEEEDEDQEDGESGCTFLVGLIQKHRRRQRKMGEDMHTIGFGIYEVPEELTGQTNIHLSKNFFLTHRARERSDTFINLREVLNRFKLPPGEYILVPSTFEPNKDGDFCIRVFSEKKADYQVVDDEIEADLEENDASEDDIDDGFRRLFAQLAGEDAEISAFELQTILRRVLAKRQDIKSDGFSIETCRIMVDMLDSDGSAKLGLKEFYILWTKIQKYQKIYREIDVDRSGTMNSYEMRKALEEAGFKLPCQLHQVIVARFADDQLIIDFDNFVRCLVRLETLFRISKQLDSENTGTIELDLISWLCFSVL
Put plainly: m-calpain protease blockers, concentration series – biochemical, fluorogenic peptide substrate, dose response (AID 1420). The assay is classed as functional.

Assay [6] deals with HEK293. Briefly: NOD2 signaling inhibitors in MDP-stimulated cells, cell-based, uHTS, luminescence (AID 2001). The assay is classed as functional. The settings on record: Homo sapiens.
A further assay concerns the target Ion channel NompC (Danio rerio, UniProt Q7T1G6). Put plainly: Dose response cell-based high-throughput screening assay for agonists of the transient receptor potential channel N1 (TRPN1). [Related pubchem assays (depositor defined):AID1424, AID1448]. The assay is classed as functional.
For assay [7], the system named is HEK293. Put plainly: inhibition of NOD1-driven NF-kB reporter – cell-based, luminescence, uHTS, primary screen (AID 1578). The assay is classed as functional. The settings on record: Homo sapiens.
Assay [8] deals with HEK293. Briefly: cells. Particulars: Homo sapiens. The assay is classed as functional, cell-based.
Assay [9] relates to HEK293. Put plainly: cells. Particulars: Homo sapiens. The assay is classed as functional, cell-based. This is another data set of the same source.
The target in another assay is Mucolipin-3 (Homo sapiens, UniProt Q8TDD5). Put plainly: Fluorescence counterscreen assay for […] agonists: dose response cell-based high-throughput screening assay to identify agonists of the transient receptor potential channel ML3 (TRPML3). [Related pubchem assays: 1424, 1448 ]. The assay is classed as functional.
Assay [10] has as its target T3, Fatty acid synthase (Homo sapiens, UniProt P49327). Put plainly: inhibition of human FAS-TE enzyme activity – biochemical, kinetic fluorescence intensity, dose response (AID 624326).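 Also: rate of fluorescence rise from hydrolysis of a fluorogenic O-methyl fluorescein ester substrate.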 The assay is classed as functional.
Assay [11] deals with T3, Fatty acid synthase. Put plainly: inhibition of human FAS-TE enzyme activity – biochemical, endpoint fluorescence intensity, uHTS hits, dose response (AID 624327).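 Also: fluorescence from hydrolysis of an O-methyl fluorescein acyl ester substrate by the enzyme.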 The assay is classed as functional.
In assay [12] the target is T4, Runt-related transcription factor 1/Core-binding factor subunit beta (Homo sapiens, UniProt Q01196+Q13951). Put plainly: Runt domain/CBFb-SMMHC interaction disruptors – biochemical, TR-FRET (AID 1438). The assay is classed as protein assay. A general note: In TR-FRET formats the signal depends on donor and acceptor labels being close together.
Assay [13] addresses T4, Runt-related transcription factor 1/Core-binding factor subunit beta. Put plainly: disruptors of Runt domain/CBFb-SMMHC interaction – biochemical, FRET, Cerulean-Runt, Venus-CBFb-SMMHC, uHTS, […] (AID 1434). The assay is classed as protein assay.
The target in assay [14] is T5, Voltage-gated N-type calcium channel alpha-1B subunit/Amyloid beta A4 precursor protein-binding family A member 1 (Homo sapiens, UniProt Q00975+Q02410). The assay is classed as protein assay.
Assay [15] deals with T5, Voltage-gated N-type calcium channel alpha-1B subunit/Amyloid beta A4 precursor protein-binding family A member 1. The assay is classed as protein assay. The source holds these as a separate data set.
The nature of assay [16]: A cytotoxicity screen of small molecule inhibitors of the PhoP region in Salmonella typhi identified in the primary screen. [Related pubchem assays: 1850, 1864, 1985 ]. The assay is classed as functional.
For assay [17], the target named is Glucose-6-phosphate 1-dehydrogenase (Homo sapiens, UniProt P11413). Put plainly: inhibition of Homo sapiens G6PD, dose series – biochemical, fluorescence, selectivity assay for P. falciparum G6PD inhibitor project, dose response (AID 504792). The assay is classed as functional.
The next assay deals with T6, Coagulation factor XII (Homo sapiens, UniProt P00748).
T6 sequence (P00748 whole entry): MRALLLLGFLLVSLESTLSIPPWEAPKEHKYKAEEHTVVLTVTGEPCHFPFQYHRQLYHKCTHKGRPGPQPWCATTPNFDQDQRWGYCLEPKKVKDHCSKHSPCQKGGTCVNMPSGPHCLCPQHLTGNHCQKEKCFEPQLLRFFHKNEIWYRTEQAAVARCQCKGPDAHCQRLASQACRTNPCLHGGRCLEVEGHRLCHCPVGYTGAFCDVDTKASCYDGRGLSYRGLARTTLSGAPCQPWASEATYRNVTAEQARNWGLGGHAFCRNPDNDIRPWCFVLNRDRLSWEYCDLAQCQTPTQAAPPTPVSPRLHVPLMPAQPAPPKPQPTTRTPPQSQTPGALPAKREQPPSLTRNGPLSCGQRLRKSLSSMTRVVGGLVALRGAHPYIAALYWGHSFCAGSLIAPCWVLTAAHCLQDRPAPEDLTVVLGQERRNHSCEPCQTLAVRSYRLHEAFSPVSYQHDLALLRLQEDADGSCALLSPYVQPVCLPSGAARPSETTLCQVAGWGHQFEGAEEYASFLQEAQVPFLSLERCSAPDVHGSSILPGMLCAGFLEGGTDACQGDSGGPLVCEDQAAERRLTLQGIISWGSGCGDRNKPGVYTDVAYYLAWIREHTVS
Briefly: activated coagulation factor XII inhibitor potency, concentration-effect curve, cell-free (AID 716). The assay is classed as functional.

A further assay has as its target Cytochrome P450 2C19 (Homo sapiens, UniProt P33261). Briefly: Cytochrome panel assay with activity outcomes. Panel member name: p450-cyp2c19 Compounds with AC50 equal or less than 10 uM are considered active. The assay is classed as functional. The settings on record: read-out: AC50.

T1 sequence (P98170 whole entry): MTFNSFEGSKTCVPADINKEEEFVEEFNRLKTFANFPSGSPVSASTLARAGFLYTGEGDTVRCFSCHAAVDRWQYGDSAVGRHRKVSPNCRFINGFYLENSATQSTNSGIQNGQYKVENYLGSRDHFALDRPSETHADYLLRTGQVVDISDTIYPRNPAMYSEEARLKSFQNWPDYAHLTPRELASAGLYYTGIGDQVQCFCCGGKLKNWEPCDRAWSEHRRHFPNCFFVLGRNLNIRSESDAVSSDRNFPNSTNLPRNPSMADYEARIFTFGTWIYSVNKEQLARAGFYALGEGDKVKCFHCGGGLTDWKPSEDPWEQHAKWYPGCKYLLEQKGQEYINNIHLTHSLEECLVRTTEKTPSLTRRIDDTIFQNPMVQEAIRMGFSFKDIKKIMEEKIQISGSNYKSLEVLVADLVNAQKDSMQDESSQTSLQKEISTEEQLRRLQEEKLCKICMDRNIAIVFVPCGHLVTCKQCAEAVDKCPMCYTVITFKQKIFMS
T3 sequence (P49327 whole entry): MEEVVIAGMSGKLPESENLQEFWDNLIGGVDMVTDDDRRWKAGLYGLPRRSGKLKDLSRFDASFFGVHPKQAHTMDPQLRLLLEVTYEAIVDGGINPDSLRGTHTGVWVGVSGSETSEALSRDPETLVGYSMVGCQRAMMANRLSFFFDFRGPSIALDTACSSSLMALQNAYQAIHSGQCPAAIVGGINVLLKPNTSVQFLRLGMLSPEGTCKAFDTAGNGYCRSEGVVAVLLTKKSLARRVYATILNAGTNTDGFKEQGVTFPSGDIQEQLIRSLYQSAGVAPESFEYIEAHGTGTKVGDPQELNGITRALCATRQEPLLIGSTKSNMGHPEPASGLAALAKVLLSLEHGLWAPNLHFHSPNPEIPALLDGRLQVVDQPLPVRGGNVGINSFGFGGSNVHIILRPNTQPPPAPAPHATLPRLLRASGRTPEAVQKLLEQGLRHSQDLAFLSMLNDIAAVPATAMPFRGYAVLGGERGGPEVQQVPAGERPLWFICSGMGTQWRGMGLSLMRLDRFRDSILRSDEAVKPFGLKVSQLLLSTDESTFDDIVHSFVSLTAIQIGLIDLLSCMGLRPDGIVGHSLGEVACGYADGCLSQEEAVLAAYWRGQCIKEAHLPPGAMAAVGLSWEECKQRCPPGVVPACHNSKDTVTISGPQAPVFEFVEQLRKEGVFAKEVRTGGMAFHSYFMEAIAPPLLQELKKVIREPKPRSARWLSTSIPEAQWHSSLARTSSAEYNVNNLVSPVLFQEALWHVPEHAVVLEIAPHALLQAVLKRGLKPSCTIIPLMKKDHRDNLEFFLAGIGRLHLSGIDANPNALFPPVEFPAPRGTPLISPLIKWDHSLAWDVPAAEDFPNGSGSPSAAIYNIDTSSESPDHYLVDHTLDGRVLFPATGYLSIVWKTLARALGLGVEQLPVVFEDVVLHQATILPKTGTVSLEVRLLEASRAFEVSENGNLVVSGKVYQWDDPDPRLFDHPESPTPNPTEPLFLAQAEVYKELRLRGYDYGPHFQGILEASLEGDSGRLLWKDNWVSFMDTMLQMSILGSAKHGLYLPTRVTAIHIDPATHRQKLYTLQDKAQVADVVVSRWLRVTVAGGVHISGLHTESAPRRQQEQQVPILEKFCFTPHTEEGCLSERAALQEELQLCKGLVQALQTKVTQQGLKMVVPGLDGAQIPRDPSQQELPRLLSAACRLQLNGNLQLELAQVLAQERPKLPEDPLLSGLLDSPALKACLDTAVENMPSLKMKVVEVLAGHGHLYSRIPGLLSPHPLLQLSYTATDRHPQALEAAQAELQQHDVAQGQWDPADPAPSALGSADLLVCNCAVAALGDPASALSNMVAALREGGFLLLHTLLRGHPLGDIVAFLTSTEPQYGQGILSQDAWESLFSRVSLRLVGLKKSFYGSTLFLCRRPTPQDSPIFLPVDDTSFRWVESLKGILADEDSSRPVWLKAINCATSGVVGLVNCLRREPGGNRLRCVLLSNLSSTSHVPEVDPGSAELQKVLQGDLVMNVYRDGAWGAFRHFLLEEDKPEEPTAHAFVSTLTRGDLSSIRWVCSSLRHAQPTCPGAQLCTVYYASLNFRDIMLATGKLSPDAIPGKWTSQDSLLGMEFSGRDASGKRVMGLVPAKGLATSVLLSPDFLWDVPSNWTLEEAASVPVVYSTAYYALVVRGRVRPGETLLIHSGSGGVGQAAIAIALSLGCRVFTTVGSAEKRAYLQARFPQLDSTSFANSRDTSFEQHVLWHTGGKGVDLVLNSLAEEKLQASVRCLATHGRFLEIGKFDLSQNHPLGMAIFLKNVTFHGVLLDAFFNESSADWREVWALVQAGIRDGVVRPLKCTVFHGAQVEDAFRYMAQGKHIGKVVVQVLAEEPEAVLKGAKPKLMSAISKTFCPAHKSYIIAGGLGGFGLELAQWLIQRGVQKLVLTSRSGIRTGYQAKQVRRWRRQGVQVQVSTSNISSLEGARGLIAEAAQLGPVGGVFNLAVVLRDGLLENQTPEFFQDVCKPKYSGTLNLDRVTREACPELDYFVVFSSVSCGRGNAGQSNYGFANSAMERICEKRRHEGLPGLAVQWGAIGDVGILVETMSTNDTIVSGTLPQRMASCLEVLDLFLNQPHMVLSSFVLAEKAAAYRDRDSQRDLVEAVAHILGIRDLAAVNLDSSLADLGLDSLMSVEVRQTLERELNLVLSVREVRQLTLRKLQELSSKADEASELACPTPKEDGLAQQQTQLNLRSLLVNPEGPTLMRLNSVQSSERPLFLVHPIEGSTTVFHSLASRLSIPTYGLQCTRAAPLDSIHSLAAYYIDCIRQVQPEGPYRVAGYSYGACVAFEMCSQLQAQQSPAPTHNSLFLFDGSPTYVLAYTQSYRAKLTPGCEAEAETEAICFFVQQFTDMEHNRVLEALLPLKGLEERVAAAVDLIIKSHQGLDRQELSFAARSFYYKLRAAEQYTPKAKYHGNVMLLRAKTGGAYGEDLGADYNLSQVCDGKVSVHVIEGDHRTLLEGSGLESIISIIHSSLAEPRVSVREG
T4 sequence (Q01196 whole entry, the tested form may be a part): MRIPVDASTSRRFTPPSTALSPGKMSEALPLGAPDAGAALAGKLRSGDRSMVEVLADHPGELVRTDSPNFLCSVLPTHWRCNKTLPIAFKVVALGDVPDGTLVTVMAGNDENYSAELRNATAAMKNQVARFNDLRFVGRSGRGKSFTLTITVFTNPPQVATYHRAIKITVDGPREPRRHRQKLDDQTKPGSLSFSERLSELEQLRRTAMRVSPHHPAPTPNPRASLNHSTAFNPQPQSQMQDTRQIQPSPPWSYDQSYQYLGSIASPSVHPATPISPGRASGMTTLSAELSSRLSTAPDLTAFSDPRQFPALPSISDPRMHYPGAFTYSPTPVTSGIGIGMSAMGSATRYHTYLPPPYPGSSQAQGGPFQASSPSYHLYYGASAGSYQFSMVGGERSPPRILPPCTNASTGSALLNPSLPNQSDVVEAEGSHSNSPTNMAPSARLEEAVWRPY
T4 sequence (Q13951 whole entry, the tested form may be a part): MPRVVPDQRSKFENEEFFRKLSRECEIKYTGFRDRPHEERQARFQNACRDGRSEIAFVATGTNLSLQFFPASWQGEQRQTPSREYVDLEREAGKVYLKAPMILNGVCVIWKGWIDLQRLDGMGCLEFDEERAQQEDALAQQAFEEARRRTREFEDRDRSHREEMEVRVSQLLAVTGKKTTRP
Mucolipin-3, sequence (Q8TDD5 whole entry): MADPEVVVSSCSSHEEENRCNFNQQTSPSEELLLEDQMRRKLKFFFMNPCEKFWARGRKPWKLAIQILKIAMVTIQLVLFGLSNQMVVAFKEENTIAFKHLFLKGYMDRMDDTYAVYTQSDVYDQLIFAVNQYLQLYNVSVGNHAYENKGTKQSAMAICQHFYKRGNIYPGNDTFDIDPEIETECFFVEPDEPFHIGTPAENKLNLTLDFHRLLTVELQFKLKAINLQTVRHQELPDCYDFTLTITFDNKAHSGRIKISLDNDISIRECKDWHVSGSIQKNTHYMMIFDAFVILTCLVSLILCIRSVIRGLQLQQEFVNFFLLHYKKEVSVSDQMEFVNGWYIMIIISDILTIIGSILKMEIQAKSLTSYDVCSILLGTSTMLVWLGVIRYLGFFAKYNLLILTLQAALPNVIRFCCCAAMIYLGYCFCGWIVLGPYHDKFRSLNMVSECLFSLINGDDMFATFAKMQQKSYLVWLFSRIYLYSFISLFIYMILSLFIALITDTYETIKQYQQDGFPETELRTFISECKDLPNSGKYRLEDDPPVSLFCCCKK
Glucose-6-phosphate 1-dehydrogenase, sequence (P11413 whole entry): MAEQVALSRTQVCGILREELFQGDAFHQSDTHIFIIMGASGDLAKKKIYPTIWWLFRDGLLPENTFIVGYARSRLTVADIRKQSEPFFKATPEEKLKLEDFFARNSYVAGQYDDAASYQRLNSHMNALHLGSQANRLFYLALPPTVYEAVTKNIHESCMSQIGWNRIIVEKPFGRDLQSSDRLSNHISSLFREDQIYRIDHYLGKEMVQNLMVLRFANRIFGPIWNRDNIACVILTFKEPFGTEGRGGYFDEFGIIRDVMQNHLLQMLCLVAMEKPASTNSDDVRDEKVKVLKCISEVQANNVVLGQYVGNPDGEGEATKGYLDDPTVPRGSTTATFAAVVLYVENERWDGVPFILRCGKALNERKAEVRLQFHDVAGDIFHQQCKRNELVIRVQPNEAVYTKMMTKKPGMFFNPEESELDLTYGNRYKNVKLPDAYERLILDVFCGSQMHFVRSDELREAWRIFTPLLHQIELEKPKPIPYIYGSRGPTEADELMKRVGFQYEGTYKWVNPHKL

As usually defined, the IC50 is the midpoint of a concentration-inhibition curve. On to `COc1cc(C(=O)O)cc(NC(=O)c2cccs2)c1OC`, for which the figures for the IC50 in [1] and in assay [2] were > 100 µM (inactive) and > 100 µM (not active), respectively.

For orientation: EC50 means the concentration that produces a half-maximal response. On to `O=C(Cc1ccc(Cl)cc1)Nc1ncc([N+](=O)[O-])s1`, for which the half-maximal effective concentration (EC50) in [3] was 0.589 µM (active); in assay [4], > 60 µM (inconclusive); at Ion channel NompC, > 29.9 µM (inactive); in the assay with HEK293 [7], 4.23 µM (active); on Mucolipin-3, > 29.9 µM (not active). The 50% inhibitory concentration (IC50) was < 0.4 µM (not active) in assay [5], 10.9 µM (inactive) in the assay on HEK293 [6], > 20 µM (inactive) with HEK293 [8] and 9.12 µM (active) with HEK293 [9].

As for `Cc1cccn2c(=O)c(/C=C(\C#N)C(N)=O)c(N3CCN(Cc4ccc5c(c4)OCO5)CC3)nc12`, the IC50 on Fatty acid synthase [10] is 9.39 µM (active); at Fatty acid synthase [11], 7.79 µM (active); in assay [12], > 100 µM (inactive); in assay [13], > 100 µM (inactive).

As for `COc1cc(OC)c(C2CC(=O)N3CN(c4ccccc4)CSC3=C2C#N)cc1OC` (stereo unspecified), the IC50 in assay [14] is > 50 µM (inactive); in [15], 6.01 µM (active); in assay [17] it was > 80 µM (inactive). Further, the EC50 in [16] was > 50 µM (active).

For orientation: AC50 means the concentration giving half of the maximal activity seen. With `CCOC(=O)N1CCN(C(=O)c2ccc(Cl)c(S(=O)(=O)N3CCOCC3)c2)CC1`, on Coagulation factor XII, the IC50 is > 50 µM (inactive). The half-maximal activity concentration (AC50) at Cytochrome P450 2C19 was 39.8 µM (inconclusive).
